Measurements from article PMC7756445, “A Novel Prodrug of a nNOS Inhibitor with Improved Pharmacokinetic Potential” (Chemmedchem, 2020).

Assays:
Assay in all cases: NOS inhibition, L-Arg to L-Cit conversion by HPLC with fluorescence detection
Format in all cases: biochemical
[1] = biological target: T1, human iNOS (Homo sapiens, UniProt P35228); conditions: at 1 μM
T1 construct: purchased Enzo Life Sciences, Inc. (New York, USA)
Method: (§1) The amidoxime 2 was evaluated for its in vitro NOS inhibitory activity, by measuring the conversion of L‐Arg to L‐Cit, using a validated HPLC method with fluorescence detection, as previously reported.[ ^39 , ^40 , ^41 ] The human nNOS and iNOS inhibition percent were calculated at 1 μM, while bovine eNOS inhibition was evaluated at 10 μM in order to have an assessment of compound selectivity toward eNOS. Considering the highly conserved primary sequence (>90 %) between the human and bovine eNOS, this latter extremely resembles the human isozyme. In particular, there is only one amino acid variation in a hydrophobic pocket that is on the outside of the heme active site. Therefore the different source of eNOS is usually well accepted and should not affect the inhibitor evaluation. ^[42]
(§2) Recombinant human iNOS and nNOS, were purchased from Enzo Life Sciences, Inc. (New York, USA), while bovine recombinant eNOS was purchased from Cayman Chemicals (Ann Arbor, Michigan, USA). HPLC analyses were performed using a Waters system composed of a P600 model pump, a 2475 multi‐fluorescence detector, and a 7725i model sample injector (Rheodyne, Cotati, CA, USA) equipped with a 5 μL loop. The column was a XTerra MS C8 (250×4.6 mm i.d., […]; Waters). A column thermostat oven module Igloo‐Cil (Cil Cluzeau Info Labo, France) was used. Chromatograms were recorded on a Fujitsu Siemens Esprimo computer and data were processed by the Empower Pro software (Waters). The appropriate mobile phase was prepared daily, filtered through a 0.45 μm WTP membrane (Whatman, Maidstone, UK), sonicated and degassed before use. Column temperature was kept constant at 20 °C. All assays were performed in triplicate.
(§3) Enzymes were diluted in 2‐[4‐(2‐hydroxyethyl)piperazin‐1‐yl]ethanesulfonic acid (HEPES) buffer (pH 7.4) to obtain iNOS and nNOS 2.5 μg/mL stock solutions, and eNOS 300 μg/mL stock solution. To measure iNOS activity, 10 μL of iNOS stock solution were added to 80 μL of HEPES buffer at pH 7.4, containing 0.1 mM CaCl2, 1 mM D,L‐dithiothreitol (DTT), 0.5 mg/mL bovine serum albumin (BSA), 10 μM flavin mononucleotide (FMN), 10 μM flavin adenine dinucleotide (FAD), 30 μM tetrahydrobiopterin (BH4), 10 μg/mL calmodulin (CaM) and 10 μM L‐Arg. To measure eNOS and nNOS activities, 25 μL of enzyme stock solution were added to 75 μL of HEPES buffer pH 7.4, containing 2 mM CaCl2, 1 mM DTT, 0.5 mg/mL BSA, 10 μM FMN, 10 μM FAD, 30 μM BH4, 10 μg/mL CaM and 10 μM L‐Arg. Then, 10 μL of a 10 μM (iNOS and nNOS assay) or 100 μM (eNOS assay) solution of the test compound was added to the enzyme assay solution, followed by pre‐incubation of 15 min at 37 °C. The reaction was initiated by the addition of 10 μL of nicotinamide adenine dinucleotide phosphate (NADPH) 7.5 mM (iNOS) or 10 mM (eNOS and nNOS), carried out at 37 °C for 20 min, and stopped by adding 500 μL of ice‐cold CH3CN. The mixture was brought to dryness under vacuum and eventually stored at −20 °C, before the fluorescence derivatization. The o‐phthalaldehyde‐N‐acetylcysteine (OPA/NAC) reagent for fluorescence derivatization was prepared with the molar ratios of 1 : 3, reacting 5 mL of methanolic OPA solution and 20 mL of 0.2 M borate buffer containing 0.1 g of NAC for 90 min to final pH 9.3±0.05. The OPA/NAC solution was stored at 4 °C and saved for no longer than seven days. […] The fluorescence reaction is realized stirring 190 μL of supernatant and 60 μL of OPA/NAC solution for 5 min. […]

[2] = biological target: T2, bovine eNOS (Bos taurus, UniProt P29473); conditions: at 10 μM
T2 construct: purchased Cayman Chemicals (Ann Arbor, Michigan, USA)
Method: as §1, §2, §3

[3] = biological target: T3, human nNOS (Homo sapiens, UniProt P29475); conditions: read-out: nNOS enzymatic inhibition
T3 construct: purchased Enzo Life Sciences, Inc. (New York, USA)
Method: as §1, §2, §3

SMILES: C/C(=N\O)NC(c1ccccc1)c1ccccc1 [Compound 2, (1E)‐N‐(diphenylmethyl)‐N′‐hydroxyethanimidamide]
- iNOS inhibition (in words) [1]: not able to inhibit
- iNOS inhibition (in words) ([1]; listed as amidoxime): inactivity
- eNOS inhibition (in words) [2]: not able to inhibit
- eNOS inhibition (in words) ([2]; listed as amidoxime): inactivity
- inhibition at 1 µM [3]: 53%
